In ChEMBL document CHEMBL5506069, “A Unique Hybridization Route to Access Hydrazylnaphthalimidols as Novel Structural Scaffolds of Multitargeting Broad-Spectrum Antifungal Candidates” (J Med Chem, 2024):
≈ marks a conversion by molar mass, not a printed value. Calls of active or inactive are those of the source. The calls are words filed in the database; no cut-off is given here.

Assays:
Candida albicans [1] = assay: Antioxidant activity in Candida albicans assessed as decrease in GSH content measured at 5 mins by ellman method; type: functional; parameters: scale not given: the % may be the effect or the level left
Candida albicans [2] = assay: Induction of intracellular ROS production in Candida albicans assessed as increase in green fluorescence intensity at 4 times MIC incubated for 6 hrs by fluorescence microscopic analysis; type: functional, organism-based
Candida albicans [3] = assay: Antioxidant activity in Candida albicans assessed as decrease in GSH content at 1 times MIC measured at 30 mins by ellman method; type: functional; parameters: scale not given: the % may be the effect or the level left; conditions: 0.5 h
Candida albicans [4] = assay: […] in Candida albicans assessed as decrease in pink fluorescence by resazurin staining based analysis; type: functional, organism-based
Calf thymus DNA [5] = assay: Induction of DNA cleavage in calf thymus DNA assessed as change in DNA band formation at 0.05 to 0.5 mM by agarose gel electrophoresis analysis; type: nucleic-acid assay; conditions: Bos taurus; dose 0.05-0.5 mM
Candida albicans [6] = assay: Induction of intracellular ROS production in Candida albicans assessed as fold increase in fluorescence intensity at 4 to 128 times MIC incubated for 6 hrs by DCFH-DA staining based analysis; type: functional, organism-based
Calf thymus DNA [7] = assay: Binding affinity to calf thymus DNA assessed as DNA-compound complex formation by measuring hyperchromism upto 7 mM by UV-Vis absorption spectra analysis; type: nucleic-acid assay; conditions: Bos taurus
L02 = assay: Cytotoxicity against human L02 cells assessed as effect on cell growth incubated for 24 to 48 hrs by MTT assay; type: toxicity, cell-based; conditions: time 24-48 hrs
Candida albicans [8] = assay: Induction of morphological changes in Candida albicans assessed as appearance of regular continuous surface by SEM analysis; type: functional, organism-based
Candida parapsilosis = assay: Antifungal activity against Candida parapsilosis ATCC 22019 assessed as inhibition of fungal growth incubated for 24 hrs by CLSI based microbroth dilution method; type: functional; conditions: Lodderomyces parapsilosis
Candida albicans [9] = assay: Induction of morphological changes in Candida albicans assessed as appearance of dented surface at 2 times MIC measured after 6 hrs by SEM analysis; type: functional, organism-based
Albumin [10] = molecular target: T1, Albumin (Homo sapiens, UniProt P02768); assay: Binding affinity to human serum albumin assessed as Stem-Volmer quenching constant at 310K at pH 7.4 by fluorescence based analysis
Candida albicans [11] = assay: Antibiofilm activity against Candida albicans assessed as inhibition of biofilm formation at 0.5 to 8 microg/ml measured for 24 hrs by crystal violet staining based; type: functional; conditions: dose 0.5-8 µg/ml, at 0.5 to 8 µg/mL
Calf thymus DNA [12] = assay: Binding affinity to calf thymus DNA assessed as decrease in fluorescence intensity by acridine orange dye based by UV-Vis absorption spectra analysis; type: nucleic-acid assay; conditions: Bos taurus
Calf thymus DNA [13] = assay: Induction of DNA cleavage in calf thymus DNA at 0.5 mM in presence of Cu2+ by agarose gel electrophoresis analysis; type: nucleic-acid assay; conditions: Bos taurus
Candida albicans [14] = assay: Antifungal activity against Candida albicans at 4 times MIC measured within 10 hrs by time kill assay; type: functional, organism-based
Candida albicans [15] = assay: Induction of morphological changes in Candida albicans assessed as deformation of cell shape at 2 times MIC measured after 6 hrs by SEM analysis; type: functional, organism-based
Candida albicans [16] = assay: Induction of morphological changes in Candida albicans assessed as appearance of oval shape by SEM analysis; type: functional, organism-based
Candida albicans [17] = assay: Antifungal activity against Candida albicans ATCC 90023 assessed as inhibition of fungal growth incubated for 24 hrs by CLSI based microbroth dilution method; type: functional
Candida albicans [18] = assay: Antifungal activity against Candida albicans assessed as reduction in metabolic activity by measuring fluorescence intensity at 0.5 to 8 times MIC measured for 6 hrs by alamar blue staining based analysis; type: functional, organism-based
Calf thymus DNA [19] = assay: Induction of DNA cleavage in calf thymus DNA at 0.05 to 0.5 mM in presence of Zn2+ by agarose gel electrophoresis analysis; type: nucleic-acid assay; conditions: Bos taurus; dose 0.05-0.5 mM
Cell membrane [20] = assay: Induction of cell membrane potential loss in Candida albicans assessed as change in fluorescence intensity at 4 times MIC measured for 30 mins by DiSC3-5 dye based fluorescence method; type: subcellular
Candida albicans [21] = assay: Antifungal activity against Candida albicans assessed as reduction in metabolic activity by measuring fluorescence intensity measured for 6 hrs by alamar blue staining based analysis; type: functional, organism-based
Candida albicans [22] = assay: Induction of intracellular ROS production in Candida albicans assessed as increase in fluorescence intensity incubated for 6 hrs by DCFH-DA staining based analysis; type: functional, organism-based
Calf thymus DNA [23] = assay: Induction of DNA cleavage in calf thymus DNA at 0.5 mM in presence of Zn2+ by agarose gel electrophoresis analysis; type: nucleic-acid assay; conditions: Bos taurus
Albumin [24] = molecular target: T1, Albumin; assay: Binding affinity to human serum albumin assessed as Stem-Volmer quenching constant at 298K at pH 7.4 by fluorescence based analysis
Calf thymus DNA [25] = assay: Binding affinity to calf thymus DNA assessed as change in red shift by measuring hypochromism upto 7 mM by UV-Vis absorption spectra analysis; type: nucleic-acid assay; conditions: Bos taurus
Cell membrane [26] = assay: Induction of cytoplasmic membrane depolarization in Candida albicans assessed as increase in fluorescence intensity at 4 times MIC measured for 30 mins by DiSC3-5 dye based fluorescence method; type: cell membranes
Candida tropicalis = assay: Antifungal activity against Candida tropicalis assessed as inhibition of fungal growth incubated for 24 hrs by CLSI based microbroth dilution method; type: functional
Candida albicans [27] = assay: Antifungal activity against Candida albicans measured after at 14 passages; type: functional, organism-based
Cell membrane [28] = assay: Induction of cell membrane damage in Candida albicans assessed as increase in fluorescent intensity at 0.5 to 8 times MIC measured for 6 hrs by PI staining based spectrofluorimeter analysis; type: subcellular
Calf thymus DNA [29] = assay: Induction of DNA cleavage in calf thymus DNA at 0.05 to 0.5 mM in presence of Cu2+ by agarose gel electrophoresis analysis; type: nucleic-acid assay; conditions: Bos taurus; dose 0.05-0.5 mM
Candida albicans [30] = assay: Induction of morphological changes in Candida albicans assessed as appearance of atrophied surface at 2 times MIC measured after 6 hrs by SEM analysis; type: functional, organism-based
Candida albicans [31] = assay: Potency index, ratio of fluconazole MIC to test compound MIC for antifungal activity against Candida albicans assessed as inhibition of fungal growth incubated for 24 hrs by CLSI based microbroth dilution method; type: functional
Candida albicans [32] = assay: Antibiofilm activity against Candida albicans assessed as reduction in residual biomass measured for 24 hrs by crystal violet staining based; type: functional, organism-based; conditions: dose <= 8.0 µg/ml
[33] = Hemolytic activity in RBC (unknown origin) assessed as hemolysis rate 128 times MIC measured for 6 hrs by double dilution method; type: toxicity, cell-based, Erythrocyte; conditions: red blood cells (erythrocytes), read-out: Activity
Albumin [34] = molecular target: T1, Albumin; assay: Binding affinity to human serum albumin assessed as Stem-Volmer quenching constant at 286K at pH 7.4 by fluorescence based analysis
Erythrocyte [35] = assay: Hemolytic activity in RBC (unknown origin) assessed as appearance of smooth surface at 128 times MIC measured for 6 hrs by microscopic analysis; type: toxicity, cell-based
Aspergillus fumigatus = assay: Antifungal activity against Aspergillus fumigatus assessed as inhibition of fungal growth incubated for 24 hrs by CLSI based microbroth dilution method; type: functional
Candida albicans [36] = assay: Induction of intracellular ROS production in Candida albicans assessed as fold increase in fluorescence intensity at 1 times MIC incubated for 6 hrs by DCFH-DA staining based analysis; type: functional
Candida albicans [37] = assay: Antifungal activity against Candida albicans assessed as reduction in LDH activity by measuring fluorescence intensity at 8 times MIC measured for 6 hrs by alamar blue staining based analysis; type: functional; parameters: scale not given: the % may be the effect or the level left
Cell membrane [38] = assay: Induction of cell membrane damage in Candida albicans assessed as increase in red fluorescent intensity at 4 to 8 times MIC measured for 6 hrs by PI staining based spectrofluorimeter analysis
Candida albicans [39] = assay: Antifungal activity against Candida albicans assessed as inhibition of fungal growth incubated for 24 hrs by CLSI based microbroth dilution method; type: functional
Calf thymus DNA [40] = assay: Binding affinity to calf thymus DNA assessed as binding constant by UV-Vis absorption spectra analysis; type: nucleic-acid assay; conditions: Bos taurus
Candida albicans [41] = assay: Antioxidant activity in Candida albicans assessed as decrease in GSH content at 2 times MIC measured at 30 mins by ellman method; type: functional; parameters: scale not given: the % may be the effect or the level left; conditions: 0.5 h
Candida albicans [42] = assay: Antifungal activity against Candida albicans assessed as reduction in LDH activity by measuring fluorescence intensity measured for 6 hrs by alamar blue staining based analysis; type: functional, organism-based
Erythrocyte [43] = assay: Hemolytic activity in RBC (unknown origin) assessed as appearance of round surface at 128 times MIC measured for 6 hrs by microscopic analysis; type: toxicity, cell-based

T1 sequence (P02768 whole entry): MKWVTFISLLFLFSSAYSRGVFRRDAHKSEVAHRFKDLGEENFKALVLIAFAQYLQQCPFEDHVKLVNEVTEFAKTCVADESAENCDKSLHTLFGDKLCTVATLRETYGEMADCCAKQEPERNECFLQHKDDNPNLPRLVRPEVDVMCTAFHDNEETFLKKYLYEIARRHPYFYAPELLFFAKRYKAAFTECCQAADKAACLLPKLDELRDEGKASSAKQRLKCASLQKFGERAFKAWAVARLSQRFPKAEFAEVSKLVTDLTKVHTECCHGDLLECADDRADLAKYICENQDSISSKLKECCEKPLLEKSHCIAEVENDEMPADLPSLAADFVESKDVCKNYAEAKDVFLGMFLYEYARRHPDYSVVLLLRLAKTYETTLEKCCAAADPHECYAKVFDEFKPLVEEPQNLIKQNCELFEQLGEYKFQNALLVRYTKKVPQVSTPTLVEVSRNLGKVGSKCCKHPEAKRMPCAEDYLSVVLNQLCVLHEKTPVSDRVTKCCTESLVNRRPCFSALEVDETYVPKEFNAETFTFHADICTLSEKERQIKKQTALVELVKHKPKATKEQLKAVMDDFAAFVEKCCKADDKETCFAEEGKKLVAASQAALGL

O=C1c2cccc3c(N/N=C/c4ccc([N+](=O)[O-])o4)ccc(c23)C(=O)N1CCO
Activity (Candida albicans [1]): 70%
Activity (Candida albicans [2]): Active
Activity (Candida albicans [3]): 50%
Activity (Candida albicans [4]): Dose-Dependent Effect
Activity (Calf thymus DNA [5]): inactive
Activity (Candida albicans [6]): Active
Activity (Calf thymus DNA [7]): Active
Activity (L02): Non-Toxic
Activity (Candida albicans [8]): Active
MIC (Candida parapsilosis): 4 µM (≈ 1.58 µg/mL)
Activity (Candida albicans [9]): Active
KSV (Albumin [10]): 8.82 10^4L/mol
inhibition (INH) (Candida albicans [11]): 22%
Activity (Calf thymus DNA [12]): Active
Activity (Calf thymus DNA [13]): inactive
Activity (Candida albicans [14]): Active
Activity (Candida albicans [15]): Active
Activity (Candida albicans [16]): Active
MIC (Candida albicans [17]): 2 µM (≈ 0.789 µg/mL)
Activity (Candida albicans [18]): Active
Activity (Calf thymus DNA [19]): inactive
Activity (Cell membrane [20]): inactive
Activity (Candida albicans [21]): Dose-Dependent Effect
Activity (Candida albicans [22]): Dose-Dependent Effect
Activity (Calf thymus DNA [23]): inactive
KSV (Albumin [24]): 9.34 10^4L/mol
Activity (Calf thymus DNA [25]): Active
Activity (Cell membrane [26]): inactive
MIC (Candida tropicalis): 2 µM (≈ 0.789 µg/mL)
Activity (Candida albicans [27]): Active
Activity (Cell membrane [28]): Active
Activity (Calf thymus DNA [29]): inactive
Activity (Candida albicans [30]): Active
Ratio (Candida albicans [31]): 13
Activity (Candida albicans [32]): Dose-Dependent Effect
hemolysis at 6 h, 128 times MIC [33]: < 5%
KSV (Albumin [34]): 12.6 10^4L/mol
Activity (Erythrocyte [35]): Non-Toxic
MIC (Aspergillus fumigatus): 4 µM (≈ 1.58 µg/mL)
fold change (FC) (Candida albicans [36]): 2.5
Activity (Candida albicans [37]): <55%
Activity (Cell membrane [38]): Active
MIC (Candida albicans [39]): 1 µM (≈ 0.394 µg/mL)
K (Calf thymus DNA [40]): 2.4 10^4L/mol
Activity (Candida albicans [41]): 40%
Activity (Candida albicans [42]): Dose-Dependent Effect
Activity (Erythrocyte [43]): Non-Toxic
